The structures appear in SMILES notation.

The test deals with NCI-H2122. Briefly: Repeat cell proliferation assay. The conditions noted are these: NCI-H2122 TP53 mutant (Q16L and C176F). The format is cell-based, human. From the text:
. Cell lines were partitioned into sensitive and insensitive groups based on compound potency (IC50). […]. Forty seven cell lines were categorized as sensitive and 309 cell lines as insensitive. For the sensitive cell lines, the maximal compound effect level (Amax) was ≤ −50% (Figure 1C,D, Figure 1—source data 1). […].

For `COc1cc2c(cc1OC(C)C)[C@H](c1ccc(Cl)cc1)N(c1ccc(N(C)C[C@H]3CC[C@H](N4CCNC(=O)C4)CC3)cc1)C(=O)C2` [NVP-CFC218], the “sensitivity in repeat cell proliferation assays” value was “confirmed”.

The values are drawn from publication PMC4468608, “A distinct p53 target gene set predicts for response to the selective p53–HDM2 inhibitor NVP-CGM097” (eLife, 2015).
